According to patent US8426425B2, “Aminopyrimidines useful as inhibitors of protein kinases” (Vertex Pharmaceuticals Incorporated, priority 2006, dated 2013):

target: T1, GSK-3β (AA 1-420) (Homo sapiens, UniProt P49841); test: GSK-3 Inhibition Assay (standard coupled enzyme system); format: biochemical; settings: 20 nM GSK-3β, 20 μM ATP, 300 μM peptide, 30° C.
T1 construct: GSK-3β (AA 1-420)
Protocol: Compounds of the present invention were screened for their ability to inhibit GSK-3β (AA 1-420) activity using a standard coupled enzyme system (Fox et al., Protein Sci. 1998, 7, 2249). Reactions were carried out in a solution containing 100 mM HEPES (pH 7.5), 10 mM MgCl2, 25 mM NaCl, 300 μM NADH, 1 mM DTT and 1.5% DMSO. Final substrate concentrations in the assay were 20 μM ATP (Sigma Chemicals, St Louis, Mo.) and 300 μM peptide (American Peptide, Sunnyvale, Calif.). Reactions were carried out at 30° C. and 20 nM GSK-3β. Final concentrations of the components of the coupled enzyme system were 2.5 mM phosphoenolpyruvate, 300 μM NADH, 30 μg/ml pyruvate kinase and 10 μg/ml lactate dehydrogenase.
An assay stock buffer solution was prepared containing all of the reagents listed above with the exception of ATP and the test compound of the present invention. The assay stock buffer solution (175 μl) was incubated in a 96 well plate with 5 μl of the test compound of the present invention at final concentrations spanning 0.002 μM to 30 μM at 30° C. for 10 min. Typically, a 12-point titration was conducted by preparing serial dilutions (from 10 mM compound stocks) with DMSO of the test compounds of the present invention in daughter plates. The reaction was initiated by the addition of 20 μl of ATP (final concentration 20 μM). Rates of reaction were obtained using a Molecular Devices Spectramax plate reader (Sunnyvale, Calif.) over 10 min at 30° C. The Ki values were determined from the rate data as a function of inhibitor concentration.

T1 sequence (P49841 whole entry, species assumed, the tested form may be a part): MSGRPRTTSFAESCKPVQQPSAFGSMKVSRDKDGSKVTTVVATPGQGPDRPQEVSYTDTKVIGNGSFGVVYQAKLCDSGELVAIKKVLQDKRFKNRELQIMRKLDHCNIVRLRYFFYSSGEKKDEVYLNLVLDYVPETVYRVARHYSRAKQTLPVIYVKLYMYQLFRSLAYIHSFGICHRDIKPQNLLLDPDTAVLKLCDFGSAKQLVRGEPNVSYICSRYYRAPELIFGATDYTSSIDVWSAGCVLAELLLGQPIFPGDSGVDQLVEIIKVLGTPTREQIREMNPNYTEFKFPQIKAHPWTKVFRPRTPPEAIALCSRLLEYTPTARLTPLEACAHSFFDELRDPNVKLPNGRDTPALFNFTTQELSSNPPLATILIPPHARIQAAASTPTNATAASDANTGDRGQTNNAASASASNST

Row | Ki [nM] | Structure (SMILES)
1 | < 50 | Fc1cnc2[nH]nc(Nc3cc(N4CCC4)nc(C4CCCCC4)n3)c2c1 [Compound I-1, N-(6-(azetidin-1-yl)-2-cyclohexylpyrimidin-4-yl)-5-fluoro-1H-pyrazolo[3,4-b]pyridin-3-amine]
2 | < 50 | Cc1cc(Nc2cc(N3CCC3)nc(C3CCCCC3)n2)n[nH]1 [Compound I-2]
3 | 50 to 100 | Fc1ccc2[nH]nc(Nc3cc(N4CCC4)nc(C4CCCCC4)n3)c2c1 [Compound I-3]
